Target: T1, YAP-TEAD interaction (Homo sapiens, UniProt P28347)
T1 construct: expressed in transfected cells; host or cells: HEK293 GripTite 293 MSR (Invitrogen R795-07)
Assay: Cell-based TEAD-GAL4 transactivation assay (luciferase reporter)
Conditions: HEK293 cells transfected with TEAD1-Gal4, YAP mutant (S127A, S397A) and luciferase reporter, compounds 0.1 μM to 30 μM; for Emax: HEK293, 24 h, read-out: TEAD-GAL4 Transactivation activity Max Act
Method: To identify inhibitors of YAP-TEAD interaction, a transient transactivation assay was carried out on HEK293 cell line (HEK293 GripTite™ 293 MSR (Invitrogen R795-07)) using plasmids containing the full length TEAD1 sequences, the full length YAP mutant (S127A, S397A) and a luciferase gene reporter. All expression constructs were performed into a pSG5 backbone plasmid in which the SV40 promoter was replaced by the CMV promoter. The TEAD1 construct was prepared by cloning the full-length human TEAD1 cDNA in fusion with the Gal4 DNA Binding Domain (AA 1-148) into pSG5_CMV to create the TEAD1 (FL)_hum_pSG5Gal4_CMV. The full-length YAP mutant (S127A, S397A) was also cloned into pSG5_CMV to create the YAP (FL)_hum_pSG5_mutS127A_S397A_CMV. The reporter plasmid GAL4(5×RE)_TK(−105/+56)_pGL3-Basic contains 5 copies of the GAL4 responsive element (5′-TCGGAGGACAGTACTCC-3′) upstream of the thymidine kinase (TK) promoter (−105/+56) inserted in a pGL3-Basic vector. To evaluate the selectivity of our compounds in blocking the YAP-TEAD interaction, a counter-screening protein-protein interaction transactivation assay was also established. Briefly, two other expression plasmids, the pBD-P53 which expresses the P53 (AA 72-390) in fusion with Gal4 and the pAD-SV40T which expresses the SV40 large T antigen (AA 84-708,AgT), were created. HEK293 cells were seeded at 5×10^4 cells/well in 96 well plates (assay plates) in DMEM medium containing 4.5 g/L D-glucose, 10% high inactivated (HI) fetal bovine serum 1% Glutamax, 1% non-essential amino acid and 1% sodium pyruvate and 0.5% penicillin/streptomycin at 37° C. in a humidified atmosphere of 8% CO2. After 24 h, transfections were performed using Jet-PEI as transfectant (101B-010 Polyplus Transfection), according to the instructions of the manufacturer (N/P=10) and a ratio YAP/TEAD=10 (per well: 50 ng of YAP(FL), 5 ng of TEAD(FL) and 50 ng of reporter plasmid). Six hours after cell transfection, the plates (‘assay plate’) were washed with 100 μl PBS per well and cells were treated with compounds in semi-log from 0.1 μM to 30 μM or DMSO 0.5% as control in DMEM, 4.5 g/L D-Glucose without phenol red, 0.3% BSA, 1% glutamax, 1% NEAA, 1% sodium pyruvate. 24 h later, the luciferase activity was determined after addition of 100 μl of Steady Glo™ luciferase assay system (Promega E2550) according to the manufacturer's directions. Luciferase activity in cell extracts was measured by reading luminescence using the Envision device.
The cellular response was determined by fitting the concentration response curves using a 3-parameter curve fit equation and determining the concentration that inhibited the luciferase activity by 50%.

T1 sequence (P28347 whole entry): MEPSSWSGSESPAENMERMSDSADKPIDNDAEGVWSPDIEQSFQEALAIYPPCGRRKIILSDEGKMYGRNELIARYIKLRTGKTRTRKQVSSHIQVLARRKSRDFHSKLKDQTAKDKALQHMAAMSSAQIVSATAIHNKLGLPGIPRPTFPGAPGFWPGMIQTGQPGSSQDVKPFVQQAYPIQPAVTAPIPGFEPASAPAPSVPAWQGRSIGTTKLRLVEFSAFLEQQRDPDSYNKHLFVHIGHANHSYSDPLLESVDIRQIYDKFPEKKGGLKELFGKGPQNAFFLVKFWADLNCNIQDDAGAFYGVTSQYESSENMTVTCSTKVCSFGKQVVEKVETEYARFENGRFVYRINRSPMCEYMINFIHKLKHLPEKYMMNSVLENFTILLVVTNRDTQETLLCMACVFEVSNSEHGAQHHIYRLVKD

Emax | IC50 (24 h) | TEAD-GAL4 Transactivation activity Max Act (24 h) | Structure (SMILES)
73% | – | – | CC(C)CN(/N=C/c1ccc2c(c1)CCCOB2O)C1=NS(=O)(=O)c2ccccc21 [Ex 47, N-[(E)-(1-hydroxy-4,5-dihydro-3H-2,1-benzoxaborepin-7-yl)methyleneamino]-N-isobutyl-1,1-dioxo-1,2-benzothiazol-3-amine]
91% | – | – | Cc1ccc2c(c1)C(N(CC(C)C)/N=C/c1ccc3c(c1)COB3O)=NS2(=O)=O [Ex 29, N-[(E)-(1-hydroxy-3H-2,1-benzoxaborol-5-yl)methyleneamino]-N-isobutyl-5-methyl-1,1-dioxo-1,2-benzothiazol-3-amine]
87% | 1.36 µM | – | CC(C)CN(/N=C/c1ccc2c(c1)COB2O)c1ncnc2ccsc12 [Ex 35, N-[(E)-(1-hydroxy-3H-2,1-benzoxaborol-5-yl)methyleneamino]-N-isobutyl-thieno [3,2-d]pyrimidin-4-amine]
76% | 2.35 µM | – | COc1cc(OC)c2c(c1)C(N1N=C(c3ccc(B(O)O)c(OC)c3)CCC1C)=NS2(=O)=O (centres unmarked) [Ex 54, [4-[2-(5,7-dimethoxy-1,1-dioxo-1,2-benzothiazol-3-yl)-3-methyl-4,5-dihydro-3H-pyridazin-6-yl]-2-methoxy-phenyl]boronic acid]
87% | 6.63 µM | – | COc1cc(/C=N/N(CC(C)C)C2=NS(=O)(=O)c3ccccc32)ccc1B1OC(=O)CN(C)CC(=O)O1 [Ex 61, 2-[4-[(E)-[(1,1-dioxo-1,2-benzothiazol-3-yl)-isobutyl-hydrazono]methyl]-2-methoxy-phenyl]-6-methyl-1,3,6,2-dioxazaborocane-4,8-dione]

The next lines start with the compound.

Structure (SMILES) | Emax | IC50 (24 h) | TEAD-GAL4 Transactivation activity Max Act (24 h)
CN(/N=C/c1ccc2c(c1)COB2O)c1ncnc2c(-c3ccccc3)csc12 [Ex102, N-[(E)-(1-hydroxy-3H-2,1-benzoxaborol-5-yl)methyleneamino]-N-methyl-7-phenyl-thieno[3,2-d]pyrimidin-4-amine] | 87% | 1.99 µM | –
CCCCN(CCCC)C(=O)c1csc2c(N(CC)/N=C/c3ccc4c(c3)COB4O)ncnc12 [Ex114, N,N-dibutyl-4-[ethyl-[(E)-(1-hydroxy-3H-2,1-benzoxaborol-5-yl)methyleneamino]amino]thieno[3,2-d]pyrimidine-7-carboxamide] | 83% | 1.74 µM | –
Cc1csc2c(N3N=C(c4ccc5c(c4)COB5O)CCC3C)ncnc12 (single isomer, unassigned; (-)) [Ex120, (−) 4-[6-(1-hydroxy-3H-2,1-benzoxaborol-5-yl)-3-methyl-4,5-dihydro-3H-pyridazin-2-yl]-7-methyl-thieno[3,2-d]pyrimidine] | – | 0.5 µM | 84%
CN(/N=C/c1ccc2c(c1)COB2O)c1ncnc2c1[nH]c(=O)n2C1CCC1 [Ex107, 9-cyclobutyl-6-[[(E)-(1-hydroxy-3H-2,1-benzoxaborol-5-yl)methyleneamino]-methyl-amino]-7H-purin-8-one] | 87% | 1.65 µM | –
COc1cc(/C=N/N(CC(C)C)C2=NS(=O)(=O)c3ccc(OCCCO)cc32)ccc1B(O)O [Ex 12, [4-[(E)-[[5-(3-hydroxypropoxy)-1,1-dioxo-1,2-benzothiazol-3-yl]-isobutyl-hydrazono]methyl]-2-methoxy-phenyl]boronic acid] | 98% | 2.97 µM | –
CC(C)CN(/N=C/c1ccc(B(O)O)c(Cl)c1)C1=NS(=O)(=O)c2ccccc21 [Ex 6, [2-chloro-4-[(E)-[(1,1-dioxo-1,2-benzothiazol-3-yl)-isobutyl-hydrazono]methyl]phenyl] boronic acid] | 62% | – | –
CCN(/N=C/c1ccc2c(c1)COB2O)c1ncnc2c1ccn2CC [Ex85, N,7-diethyl-N-[(E)-(1-hydroxy-3H-2,1-benzoxaborol-5-yl)methyleneamino]pyrrolo [2,3-d]pyrimidin-4-amine] | 81% | 0.61 µM | –
CCN(/N=C/c1ccc(B(O)O)c(OC)c1)c1ncnc2c(OC)cccc12 [Ex 21, [4-[(E)-[ethyl-(8-methoxyquinazolin-4-yl)hydrazono]methyl]-2-methoxy-phenyl]boronic acid] | 90% | 1.77 µM | –
